Results on ten compounds are retold here after article PMC3013507 (Anticancer research, 2010).

Like-named read-outs stand apart in the source and are kept apart here. Bounds are passed on as bounds.

Data set [1] deals with HL-60 cells. Nature of the data set: Cytotoxicity. As to conditions: HL-60 leukemia cells; for HL-60 ED50: 3–4 days, SRB.
Another data set concerns the target NF-κB p65 (Homo sapiens, UniProt Q04206). The experiment in a line: ELISA NF-κB p65 inhibition assay. Type of data set: cell-based. As to conditions: for ELISA NF-κB IC50: NF-κB p65, nuclear extract of HeLa cells treated with compound and TNF-α; for NF-κB inhibitory activity (in words): NF-κB p65 ELISA.
Data set [2] deals with HT-29 cells. Nature of the data set: Cytotoxicity. As to conditions: HT-29 colon cancer cells; for HT-29 ED50: 3–4 days, SRB.
Data set [3] concerns HeLa cells. Nature of the data set: Cytotoxicity. The following applies: for HeLa ED50: HeLa cervical cancer cells, 3–4 days, SRB.
The test system of data set [4] is HT-29 cells. Nature of the data set: Reactive oxygen species. The data set is classed as cell-based. The following applies: for Potentiating effect on intracellular ROS levels in the presence of H2O2: H2O2 50 μM.
The subject of data set [5] is HL-60 cells.
Data set [6] relates to HeLa cells.
Data set [7] has as its system HT-29 cells.
The subject of the next data set is NF-κB. The experiment in a line: NF-κB evaluation in whole cells. The following applies: HeLa cells, IL-1α stimulation; compound 8 at 5 μg/ml. The data set is classed as cell-based.
The test system of another data set is NFAT-1. The experiment in a line: NFAT-1 assay. Type of data set: cell-based. The following applies: 30 min incubation.
In data set [8] the test system is mitochondria transmembrane potential. The experiment in a line: Mitochondria transmembrane potential. The data set is classed as cell-based. As to conditions: 2 h treatment, JC-1.
In another data set the test system is P-388 cell line. The following applies: cited from earlier work.

Sequence of NF-κB p65 (Q04206 whole entry): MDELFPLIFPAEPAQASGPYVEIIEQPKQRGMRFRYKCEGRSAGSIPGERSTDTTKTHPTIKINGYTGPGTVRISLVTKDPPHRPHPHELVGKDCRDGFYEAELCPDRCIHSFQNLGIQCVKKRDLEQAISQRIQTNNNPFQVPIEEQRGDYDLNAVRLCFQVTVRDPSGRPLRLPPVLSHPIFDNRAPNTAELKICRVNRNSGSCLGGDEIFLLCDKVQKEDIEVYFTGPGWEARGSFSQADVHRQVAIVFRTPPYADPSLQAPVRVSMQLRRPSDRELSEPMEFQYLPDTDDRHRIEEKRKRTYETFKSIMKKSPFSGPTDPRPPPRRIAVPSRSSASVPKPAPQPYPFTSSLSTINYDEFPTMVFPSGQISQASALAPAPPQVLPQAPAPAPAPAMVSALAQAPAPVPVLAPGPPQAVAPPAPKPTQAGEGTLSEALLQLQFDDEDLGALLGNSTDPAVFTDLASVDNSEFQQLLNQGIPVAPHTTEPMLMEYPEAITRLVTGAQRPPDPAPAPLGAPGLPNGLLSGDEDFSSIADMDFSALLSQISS

For the compound `C/C=C(\C)C(=O)O[C@@H]1C[C@@]2(C)[C@H]([C@@H]3C[C@@H]([C@@H]4OC4(C)C)O[C@@H]3OC(C)=O)CC[C@]2(C)[C@@H]2CC=C3C(C)(C)C(=O)C[C@H](O)[C@]3(C)[C@H]21` [Compound 2, bruceajavaninone A], the “HL-60 ED50” value with HL-60 cells [1] is more than 20 µg/mL. In addition, the “ELISA NF-κB IC50” value at NF-κB p65 was found to be 5.3 µg/mL. Moreover, the “HT-29 ED50” value in the data set with HT-29 cells [2] was more than 20 µg/mL. Also, the “HeLa ED50” value in the data set on HeLa cells [3] is more than 20 µg/mL.
Consider `C/C=C(\C)C(=O)O[C@@H]1C[C@]2(C)C(=CC[C@H]2[C@@H]2C[C@@H]([C@@H]3OC3(C)C)O[C@@H]2OC(C)=O)[C@@]2(C)[C@H]1[C@@]1(C)C=CC(=O)C(C)(C)[C@@H]1C[C@H]2OC(C)=O` [Compound 4, bruceajavanone B], for which, in the data set with HL-60 cells [1], the “HL-60 ED50” value turned out to be 1.1 µg/mL. Moreover, the “ELISA NF-κB IC50” value on NF-κB p65 was found to be 1.0 µg/mL. Moreover, the “Potentiating effect on intracellular ROS levels in the presence of H2O2” value in the data set on HT-29 cells [4] was “exerted a potentiating effect”. The “Cytotoxicity against HL-60 (in words)” value in the data set with HL-60 cells [5] is “selective cytotoxicity against the HL-60 cell line”. In addition, the “HT-29 ED50” value in the data set on HT-29 cells [2] is more than 20 µg/mL. The “HeLa ED50” value with HeLa cells [3] was more than 20 µg/mL.
Broadly, the IC50 is the point on the concentration scale where inhibition reaches its midpoint. A lower IC50 goes with greater potency. In the case of `COC(=O)[C@@]12OC[C@]34[C@H]([C@@H](O)[C@@H]1O)[C@@]1(C)CC(=O)C(O)=C(C)[C@@H]1C[C@H]3OC(=O)[C@H](OC(=O)/C=C(\C)C(C)C)[C@@H]24` [Compound 5, bruceantin], in the data set on HL-60 cells [1], the “Cytotoxicity against HL-60 (in words)” value is “highly cytotoxic” and the “HL-60 ED50” value worked out at 0.0082 µg/mL. Also, on NF-κB p65, the concentration for half-maximal inhibition (IC50) was 35.7 µM and the “NF-κB inhibitory activity (in words)” value is “moderate NF-κB inhibitory activity”. In addition, in the data set on HT-29 cells [2], the “Cytotoxicity against HT-29 (in words)” value is “highly cytotoxic” and the “HT-29 ED50” value worked out at 0.012 µg/mL. Besides, the “Cytotoxicity against HeLa (in words)” value in the data set with HeLa cells [3] (HeLa cells) was “highly cytotoxic”. The “HeLa ED50” value with HeLa cells [3] stood at 0.016 µg/mL.
Regarding `COC(=O)[C@@]12OC[C@]34[C@H]([C@@H](O)[C@@H]1O)[C@@]1(C)CC(=O)C(O)=C(C)[C@@H]1C[C@H]3OC(=O)[C@H](OC(=O)CC(C)C)[C@@H]24` [Compound 6, bruceine A], the “HL-60 ED50” value in the data set on HL-60 cells [1] was 0.069 µg/mL. At NF-κB p65, the IC50 is 4.21 µM and the “NF-κB inhibitory activity (in words)” value is reported as “moderate NF-κB inhibitory activity”. The “Cytotoxicity against HL-60 (in words)” value in the data set with HL-60 cells [5] was “highly cytotoxic”. Further, in the data set on HeLa cells [6], the “Cytotoxicity against HeLa (in words)” value is given as “highly cytotoxic”. Also, the “HT-29 ED50” value in the data set on HT-29 cells [2] is 1.6 µg/mL. The “Cytotoxicity against HT-29 (in words)” value in the data set on HT-29 cells [7] is “highly cytotoxic”. The “HeLa ED50” value in the data set with HeLa cells [3] turned out to be 0.6 µg/mL.
For `COc1cc([C@H]2Oc3cc(-c4cc(=O)c5c(O)cc(O)cc5o4)ccc3O[C@@H]2CO)ccc1O` [Compound 7, (−)-hydnocarpin], the “HL-60 ED50” value in the data set on HL-60 cells [1] was 2.6 µg/mL. Moreover, at NF-κB p65, the “ELISA NF-κB IC50” value worked out at 11.5 µg/mL. In the data set on HL-60 cells [5], the “Cytotoxicity against HL-60 (in words)” value was “moderate cytotoxicity”. In addition, the “HT-29 ED50” value with HT-29 cells [2] turned out to be 9.7 µg/mL. Also, in the data set on HT-29 cells [7], the “Cytotoxicity against HT-29 (in words)” value is “moderate cytotoxicity”. Besides, the “HeLa ED50” value in the data set on HeLa cells [3] is more than 20 µg/mL.
Turning to `COc1cc(-c2cc(=O)c3c(O)cc(O)cc3o2)ccc1O` [Compound 8, chrysoeriol], in the data set with HL-60 cells [1], the “Cytotoxicity against HL-60 (in words)” value is “selective cytotoxicity against the HL-60 cell line” and the “HL-60 ED50” value is 0.6 µg/mL. In the data set with NF-κB, the “Inhibition of NF-κB translocation into the nucleus” value is reported as “showed inhibition of translocation of NF-κB into the nucleus”. In addition, the “NFAT translocation from the cytoplasm to the nucleus” value in the data set with NFAT-1 is on record as “Induced activation of NFAT was confirmed by its translocation to the nucleus”. Besides, the “Potentiating effect on intracellular ROS levels in the presence of H2O2” value with HT-29 cells [4] is recorded as “exerted a potentiating effect”. The “Elevation of intracellular ROS in the absence of H2O2” value in the data set with HT-29 cells [4] (compound alone) is given as “most significant elevation of intracellular ROS”. Also, the “Effect on mitochondrial transmembrane potential” value in [8] was “able to compromise the integrity of the mitochondrial membrane to a larger extent than the other test compounds”. The “HT-29 ED50” value in the data set with HT-29 cells [2] is more than 20 µg/mL. In addition, the “Activity using the P-388 cell line” value with P-388 cell line was “moderately active”. In addition, the “HeLa ED50” value in the data set with HeLa cells [3] is more than 20 µg/mL.
Turning to `Cc1c2ccncc2c(C)c2c1[nH]c1ccccc12` [Ellipticine, ellipticine, reference compound], the “HL-60 ED50” value with HL-60 cells [1] stood at 1.3 µg/mL. Moreover, in the data set with HT-29 cells [2], the “HT-29 ED50” value came out at 3.5 µg/mL. In addition, in the data set on HeLa cells [3], the “HeLa ED50” value was found to be 3.6 µg/mL.
For `COc1ccc([C@@]23Oc4cc(OC)cc(OC)c4[C@]2(O)[C@H](O)[C@H](C(=O)N(C)C)[C@H]3c2ccccc2)cc1` [Rocaglamide, reference compound], in the data set on NF-κB, the “Inhibition of NF-κB translocation into the nucleus” value is given as “inhibited the translocation”.
Regarding bruceajavanone A 7-acetate [Compound 1], the “HL-60 ED50” value with HL-60 cells [1] was more than 20 µg/mL. Also, the “ELISA NF-κB IC50” value at NF-κB p65 is more than 20 µg/mL. In addition, the “HT-29 ED50” value with HT-29 cells [2] was more than 20 µg/mL. Further, in the data set with HeLa cells [3], the “HeLa ED50” value was more than 20 µg/mL.
bruceajavanone C [Compound 3]: the “HL-60 ED50” value in the data set on HL-60 cells [1] was more than 20 µg/mL. For the same compound, the “ELISA NF-κB IC50” value on NF-κB p65 was more than 20 µg/mL. In the data set with HT-29 cells [2], the “HT-29 ED50” value is more than 20 µg/mL. The “HeLa ED50” value in the data set on HeLa cells [3] is more than 20 µg/mL.
